Among the data in ChEMBL document CHEMBL3865833, “Functional induction of P-glycoprotein efflux pump by phenyl benzenesulfonamides: Synthesis and biological evaluation of T0901317 analogs” (Eur J Med Chem, 2016) are viability, Activity and selectivity ratio values, retold here.

A short description of data set [1]: Cytotoxicity against human LS180 cells assessed as effect on cell viability at 50 uM measured after 24 hrs by MTT assay relative to control. The data set is classed as toxicity, cell-based. The conditions noted are these: read-out: Activity. On the technique in general: Tetrazolium assays rely on reduction of a dye to a coloured formazan, in cell work by metabolically active cells.

The next data set has as its system LS180. As to the kind of experiment: Activation of PXR/LXR in human LS180 cells assessed as induction of P-gp measured as intracellular accumulation of Rhodamine-123 at 5 uM preincubated for 48 hrs followed by 40 mins incubation with HANKS buffer and subsequent addition of Rhodamine-123 measured after 90 mins by fluorescence analysis relative to control. The data set is classed as cell-based.

Data set [2] is described as follows: Therapeutic index, ratio of effective concentration for cytotoxicity in human LS180 cells to effective concentration for activation of PXR/LXR in human LS180 cells assessed as induction of P-gp. Conditions: read-out: TI. The data set is classed as cell-based.
Data set [3] in a line: Cytotoxicity against human SH-SY5Y cells assessed as effect on cell viability at 50 uM measured after 24 hrs by MTT assay relative to control. The conditions noted are these: read-out: Activity. The data set is classed as toxicity, cell-based.
The nature of data set [4]: Therapeutic index, ratio of effective concentration for cytotoxicity in human SH-SY5Y cells to effective concentration for activation of PXR/LXR in human LS180 cells assessed as induction of P-gp. Type of data set: cell-based. The conditions noted are these: read-out: TI.

The structures appear in SMILES notation.

For the compound `COc1ccc(-n2cc(CN(c3ccc(C(C)=O)cc3)S(=O)(=O)c3ccccc3)nn2)cc1`, the viability at 24 h, 50 µM in data set [1] was 93.3%; in data set [3], 88.5%. The Activity in the data set with LS180 came to 86.3%. For the same compound, the selectivity ratio in data set [2] and in data set [4] was 10 in each case.
Turning to `COC(=O)c1ccc(-n2cc(CN(c3ccc(C(C)=O)cc3)S(=O)(=O)c3ccccc3)nn2)cc1`, the viability at 24 h, 50 µM was determined as 80.6% in data set [1] and 71.8% in data set [3]. Moreover, the Activity with LS180 worked out at 77%. In addition, the selectivity ratio in data set [2] and in data set [4] was 10 throughout.
Turning to `COc1ccc(-n2cc(CN(c3ccc(C(O)(C(F)(F)F)C(F)(F)F)cc3)S(=O)(=O)c3ccccc3)nn2)cc1`, the viability at 24 h, 50 µM was determined as 84.9% in data set [1] and 59.2% in data set [3]. In addition, the Activity with LS180 amounted to 81.4%. Moreover, the selectivity ratio in data set [2] and in data set [4] was 10 throughout.
Regarding `O=S(=O)(c1ccccc1)N(Cc1cn(-c2ccc(C(F)(F)F)cc2)nn1)c1ccc(C(O)(C(F)(F)F)C(F)(F)F)cc1`, the viability at 24 h, 50 µM in data set [1] stood at 62.8%; in data set [3] it was 49.8%. Moreover, the Activity with LS180 came to 70.2%. Besides, the selectivity ratio in data set [2] and in data set [4] was 10 throughout.
Regarding `CC(=O)c1ccc(N(Cc2cn(-c3ccc(C(C)=O)cc3)nn2)S(=O)(=O)c2ccccc2)cc1`, the viability at 24 h, 50 µM in data set [1] was found to be 87.3%; in data set [3], 97.3%. The Activity in the data set with LS180 is 66.2%. In addition, the selectivity ratio in data set [2] and in data set [4] was 10 in each case.
For the compound `O=S(=O)(c1ccccc1)N(Cc1cn(-c2ccc(F)cc2F)nn1)c1ccc(C(O)(C(F)(F)F)C(F)(F)F)cc1`, the viability at 24 h, 50 µM was determined as 93.6% in data set [1] and 86.5% in data set [3]. For the same compound, the Activity in the data set on LS180 came to 66.3%. The selectivity ratio in data set [4] was 10.
Consider `CC(=O)c1ccc(N(Cc2cn(-c3ccccc3F)nn2)S(=O)(=O)c2ccccc2)cc1`, for which the viability at 24 h, 50 µM in data set [1] is 83.8%; in data set [3], 93.6%. In addition, in the data set with LS180, the Activity is 55.7%. Further, the selectivity ratio in data set [4] amounted to 10.
Take `Cc1ccc(-n2cc(CN(c3ccc(C(O)(C(F)(F)F)C(F)(F)F)cc3)S(=O)(=O)c3ccccc3)nn2)cc1C`: the viability at 24 h, 50 µM turned out to be 80% in data set [1] and 68.7% in data set [3]. Further, the Activity with LS180 was 68.7%. Besides, the selectivity ratio in data set [2] and in data set [4] was 10 in each case.
`CC(=O)c1ccc(N(Cc2cn(-c3ccc(Cl)cc3)nn2)S(=O)(=O)c2ccccc2)cc1`: the viability at 24 h, 50 µM in data set [1] came to 88.1%; in data set [3], 74.4%. Besides, in the data set on LS180, the Activity worked out at 68.8%. For the same compound, the selectivity ratio in data set [2] is 10.
Turning to `CC(=O)c1ccc(N(Cc2cn(-c3ccccc3C#N)nn2)S(=O)(=O)c2ccccc2)cc1`, the viability at 24 h, 50 µM in data set [1] came to 91.8%; in data set [3], 99%. In the data set with LS180, the Activity was determined as 86.2%. The selectivity ratio in data set [2] and in data set [4] was 10 each time.
For the compound `CCOC(=O)c1ccc(-n2cc(CN(c3ccc(C(O)(C(F)(F)F)C(F)(F)F)cc3)S(=O)(=O)c3ccccc3)nn2)cc1`, the viability at 24 h, 50 µM is 76.5% in data set [1] and 73.8% in data set [3]. Further, the Activity in the data set on LS180 is 91.3%. The selectivity ratio in data set [2] and in data set [4] was 10 throughout.
Turning to `O=[N+]([O-])c1ccc(-n2cc(CN(c3ccc(C(O)(C(F)(F)F)C(F)(F)F)cc3)S(=O)(=O)c3ccccc3)nn2)cc1`, the viability at 24 h, 50 µM worked out at 66.2% in data set [1] and 39.6% in data set [3]. The Activity in the data set with LS180 is 80.6%. In addition, the selectivity ratio in data set [2] and in data set [4] was 10 in each case.
Consider `CC(=O)c1ccc(N(Cc2cn(-c3c(C)cccc3C)nn2)S(=O)(=O)c2ccccc2)cc1`, for which the viability at 24 h, 50 µM is 60.6% in data set [1] and 80.4% in data set [3]. In the data set on LS180, the Activity came to 58.4%. In addition, the selectivity ratio in data set [2] and in data set [4] was 10 in each case.
With `CC(=O)c1ccc(N(Cc2cn(-c3ccc(C)cc3)nn2)S(=O)(=O)c2ccccc2)cc1`, the viability at 24 h, 50 µM in data set [1] turned out to be 84.1%; in data set [3] it was 85.8%. In the data set with LS180, the Activity was found to be 58.6%. Also, the selectivity ratio in data set [2] and in data set [4] was 10 in each case.
In the case of `CC(=O)c1ccc(N(Cc2cn(-c3ccc(OC(F)(F)F)cc3)nn2)S(=O)(=O)c2ccccc2)cc1`, the viability at 24 h, 50 µM in data set [1] was 67.6%; in data set [3], 64.4%. The Activity in the data set on LS180 was 83.4%. Besides, the selectivity ratio in data set [2] and in data set [4] was 10 each time.
Regarding `CC(=O)c1ccc(N(Cc2cn(-c3ccc(F)cc3)nn2)S(=O)(=O)c2ccccc2)cc1`, the viability at 24 h, 50 µM is 60% in data set [1] and 90.4% in data set [3]. In addition, the Activity in the data set with LS180 was 55.9%. Besides, in data set [4], the selectivity ratio was determined as 10.
In the case of `CC(=O)c1ccc(-n2cc(CN(c3ccc(C(O)(C(F)(F)F)C(F)(F)F)cc3)S(=O)(=O)c3ccccc3)nn2)cc1`, the viability at 24 h, 50 µM in data set [1] is 70.7%; in data set [3], 42.2%. The Activity with LS180 turned out to be 81.6%. Besides, the selectivity ratio in data set [2] and in data set [4] was 10 throughout.
Consider `CC(=O)c1ccc(N(Cc2cn(-c3ccc(O)c([N+](=O)[O-])c3)nn2)S(=O)(=O)c2ccccc2)cc1`, for which the viability at 24 h, 50 µM in data set [1] came out at 96.1%; in data set [3], 71.3%. For the same compound, the Activity in the data set with LS180 turned out to be 74%. Also, the selectivity ratio in data set [2] and in data set [4] was 10 throughout.
Regarding `O=S(=O)(c1ccccc1)N(Cc1cn(-c2ccc(OC(F)(F)F)cc2)nn1)c1ccc(C(O)(C(F)(F)F)C(F)(F)F)cc1`, the viability at 24 h, 50 µM in data set [1] came out at 68.7%; in data set [3] it was 43.5%. Further, the Activity in the data set with LS180 amounted to 67.8%. The selectivity ratio in data set [2] and in data set [4] was 10 each time.
As to `Cc1ccc(C)c(-n2cc(CN(c3ccc(C(O)(C(F)(F)F)C(F)(F)F)cc3)S(=O)(=O)c3ccccc3)nn2)c1`, the figures for the viability at 24 h, 50 µM in data set [1] and in data set [3] were 76.9% and 93%, respectively. Moreover, the Activity in the data set with LS180 was found to be 69%. In addition, the selectivity ratio in data set [2] and in data set [4] was 10 each time.
Regarding `Cc1ccc(-n2cc(CN(c3ccc(C(O)(C(F)(F)F)C(F)(F)F)cc3)S(=O)(=O)c3ccccc3)nn2)cc1`, the viability at 24 h, 50 µM in data set [1] was 71.9%; in data set [3], 48.9%. Besides, the Activity in the data set on LS180 was found to be 74.6%. Further, the selectivity ratio in data set [2] was determined as 10.
On to `C#CCOC(c1ccc(N(CC#C)S(=O)(=O)c2ccccc2)cc1)(C(F)(F)F)C(F)(F)F`, for which the viability at 24 h, 50 µM in data set [1] turned out to be 78.7%; in data set [3], 88.7%. In addition, in the data set on LS180, the Activity stood at 79.7%. Also, the selectivity ratio in data set [2] and in data set [4] was 10 throughout.
Regarding `CC(=O)c1ccc(N(Cc2cn(-c3ccc(C(O)(C(F)(F)F)C(F)(F)F)cc3)nn2)S(=O)(=O)c2ccccc2)cc1`, the figures for the viability at 24 h, 50 µM in data set [1] and in data set [3] were 103% and 123%, respectively. Moreover, the Activity in the data set with LS180 was 87.4%.
On to `CC(=O)c1ccc(N(Cc2cn(-c3ccccc3C)nn2)S(=O)(=O)c2ccccc2)cc1`, for which the viability at 24 h, 50 µM in data set [1] worked out at 64.4%; in data set [3], 92.9%. In the data set on LS180, the Activity amounted to 65.1%. Moreover, the selectivity ratio in data set [2] and in data set [4] was 10 throughout.
`CC(=O)c1ccc(N(Cc2cn(-c3cccc([N+](=O)[O-])c3)nn2)S(=O)(=O)c2ccccc2)cc1`: the viability at 24 h, 50 µM came to 112% in data set [1] and 74.2% in data set [3]. The Activity with LS180 stood at 71.6%. Moreover, the selectivity ratio in data set [2] and in data set [4] was 10 throughout.
`O=S(=O)(c1ccccc1)N(Cc1cn(-c2ccc(F)cc2)nn1)c1ccc(C(O)(C(F)(F)F)C(F)(F)F)cc1`: the viability at 24 h, 50 µM amounted to 51.5% in data set [1] and 36.4% in data set [3]. The Activity in the data set on LS180 amounted to 70.5%. Moreover, the selectivity ratio in data set [2] and in data set [4] was 10 each time.
As to `CC(=O)c1ccc(N(Cc2ccccc2)S(=O)(=O)c2ccccc2)cc1`, the viability at 24 h, 50 µM came out at 89.5% in data set [1] and 112% in data set [3]. In the data set with LS180, the Activity was 64.5%. Moreover, the selectivity ratio in data set [2] came to 10.
As to `CC(=O)c1ccc(N(Cc2cn(-c3cccc(C(C)=O)c3)nn2)S(=O)(=O)c2ccccc2)cc1`, the viability at 24 h, 50 µM in data set [1] was found to be 84.7%; in data set [3], 78.7%. Moreover, the Activity with LS180 was 71%. The selectivity ratio in data set [2] and in data set [4] was 10 each time.
`O=S(=O)(c1ccccc1)N(Cc1cn(-c2cccc(F)c2)nn1)c1ccc(C(O)(C(F)(F)F)C(F)(F)F)cc1`: the viability at 24 h, 50 µM in data set [1] is 56%; in data set [3], 29.8%. Moreover, in the data set on LS180, the Activity is 90.3%. The selectivity ratio in data set [2] and in data set [4] was 10 throughout.
Regarding `CC(=O)c1ccc(N(Cc2cn(-c3ccc([N+](=O)[O-])cc3)nn2)S(=O)(=O)c2ccccc2)cc1`, the viability at 24 h, 50 µM in data set [1] turned out to be 74.7%; in data set [3] it was 105%. The Activity in the data set with LS180 worked out at 55.6%. For the same compound, the selectivity ratio in data set [2] and in data set [4] was 10 in each case.
As to `CC(=O)c1ccc(N(CC(F)(F)F)S(=O)(=O)c2ccccc2)cc1`, the viability at 24 h, 50 µM in data set [1] turned out to be 88.3%; in data set [3] it was 81.3%. Also, the Activity in the data set on LS180 worked out at 63.5%. The selectivity ratio in data set [2] came out at 10.
